{"source": "patent US20220202811A1", "about": "“TREATMENT FOR RETINOIC ACID RECEPTOR-RELATED ORPHAN RECEPTOR Ɣ (RORƔ)-DEPENDENT CANCERS” (The Regents of the University of California, priority 2019, published 2022)", "key": {"[1]": {"tested_on": "PDX1424, PDX1444, and FG cells", "assay": "compilation of PDX or FG xenografts, AZD-0284", "format": "in vivo, human", "source_text": "FIG. 45 is a compilation of all data from mice bearing PDX or FG cancer xenographs, including PDX1424, PDX1444, and FG."}, "[2]": {"tested_on": "pancreatic cancer cell", "assay": "in vivo tumor growth, antagonists of Table 2", "design": "species or system mouse", "details": "extent of growth suppression relative to control"}, "[3]": {"tested_on": "primary patient-derived organoids", "assay": "primary patient-derived organoids, SR2211", "format": "cell-based, human", "details": "following SR2211 treatment", "experimental": "Primary patient organoids were established and provided by Dr. Andrew Lowy. Briefly, patient-derived xenografts were digested for 1 hour at 37° C. in RPMI containing 2.5% FBS, 5 mg/ml Collagenase II, and 1.25 mg/ml Dispase II, then passaged through a […] mesh filter. Cells were plated at a density of 1.5×10^5 cells per 50 μl Matrigel. After domes were solidified, growth medium was added as follows: RPMI containing 50% Wnt3a conditioned media, 10% R-Spondinl-conditioned media, 2.5% FBS, 50 ng/ml EGF, 5 mg/ml Insulin, 12.5 ng/ml hydrocortisone, and 14 μM Rho Kinase Inhibitor. After establishment, organoids were passaged and maintained as previously described (Boj et al., 2015). Briefly, organoids were isolated using Cell Recovery Solution (Corning 354253), then dissociated into single cell suspensions with TrypLE Express (ThermoFisher 12604) supplemented with 25 μg/ml DNase I (Roche) and 14 μM Rho Kinase Inhibitor (Y-27632, Sigma). Cells were split 1:2 into 20 μl domes plated on pre-warmed 48 well plates. Domes were incubated at 37° C. for 5 min, then covered with human complete organoid feeding media (Boj et al., 2015) without Wnt3a-conditioned media. […] Organoids were grown in the presence of vehicle or SR2211 for 7 days, then imaged and quantified, n=3 independent wells plated per dose per treatment group. […] Organoids were counted and measured using ImageJ 1.51s software."}, "[4]": {"tested_on": "Hmga2", "assay": "target engagement by Hmga2 immunofluorescence in KP^f/fC tumors", "format": "in vivo, mouse", "details": "mid-point of the treatment regimen", "experimental": "FIGS. 20A-20D show target engagement following RORγ inhibition in vivo, related to FIGS. 5A-5X. FIGS. 20A and 20B: Tumor-bearing KP^f/fC mice 9.5 weeks of age were treated with vehicle or SR2211 for two weeks (midpoint), after which tumors were isolated, fixed, and analyzed for target engagement of Hmga2 in epithelial cells by immunofluorescence. Quantification of Hmga2-positive epithelial cells in vehicle or SR2211 treated tumors (FIG. 20A) representative images (FIG. 20B). FIGS. 20C and 20D: Tumor-bearing KP^f/fC mice were treated from 8 weeks of age to endpoint with either vehicle or SR2211. Quantification of Hmga2-positive epithelial cells in vehicle or SR2211 treated tumors (FIG. 20C), representative images (FIG. 20D). Four frames were analyzed per mouse, n=2-4 mice per condition, Hmga2 (red), Keratin (green). Data represented as mean+/−S.E.M. *p<0.05, **p<0.01, ***p<0.001 by Student's t-test or One-way ANOVA. Grubb's test (p=0.1), was used to remove an outlier from the midpoint SR2211 treated group.\nPancreatic cancer tissue from KP^f/fC mice was fixed in Z-fix (Anatech Ltd, Fisher Scientific) and paraffin embedded at the UCSD Histology and Immunohistochemistry Core at The Sanford Consortium for Regenerative Medicine according to standard protocols. 5 μm sections were obtained and deparaffinized in xylene. […]"}, "[5]": {"tested_on": "human pancreatic cancer Fast Growing (FG) cells", "assay": "FG organoid assay", "format": "cell-based", "experimental": "Similarly, the effects of JTE-151 at different doses were examined on human pancreatic cancer Fast Growing (FG) cells using the organoid assay (FIG. 69). Three doses of JTE-151 were tested: 0.3 μM, 1 μM, and 3 μM."}, "[6]": {"details": "compilation of all data (FIG. 45)"}, "[7]": {"details": "especially at 90 mg/kg AZD-0284 (FIG. 44)"}}}
{"smiles": "CC(=O)N1Cc2cc(S(C)(=O)=O)ccc2[C@@H]1C(=O)Nc1ccc(C(O)(C(F)(F)F)C(F)(F)F)cc1", "note": "[AZD-0284]", "values": [{"measurement": "EpCam+ tumor epithelial cells", "setting": "[1]; [6]", "result": "decrease"}, {"measurement": "EpCam+/CD133+ tumor stem cells", "setting": "[1]; [6]", "result": "decrease"}, {"measurement": "cell number", "setting": "[1]; [6]", "result": "decrease"}, {"measurement": "EpCam+ tumor epithelial cells", "setting": "[1]; [7]", "result": "reduced"}, {"measurement": "EpCam+/CD133+ tumor stem cells", "setting": "[1]; [7]", "result": "reduced"}]}
{"smiles": "OC(c1ccc(-c2ccc(CN3CCN(Cc4ccncc4)CC3)cc2)c(F)c1)(C(F)(F)F)C(F)(F)F", "note": "[SR2211]", "values": [{"measurement": "in vivo tumor growth", "setting": "[2]", "result": "✓✓ (dose response observed; growth suppressed by less than 4-fold relative to control)"}, {"measurement": "reduction in total organoid volume", "setting": "[3]", "result": "~300", "unit": "fold"}, {"measurement": "Hmga2 in pancreatic epithelial cells", "setting": "[4]", "result": "downregulated"}]}
{"smiles": "Cc1ccc(NC(=O)C[C@H](CCC(=O)O)c2noc([C@H]3C[C@@H](CC(C)(C)C)C3)c2C2CC2)c(Cl)c1", "note": "[JTE-151, (4S)-6-[(2-chloro-4-methylphenyl)amino]-4-{4-cyclopropyl-5-[cis-3-(2,2-dimethylpropyl)cyclobutyl]isoxazol-3-yl}-6-oxohexanoic acid]", "values": [{"measurement": "FG organoid growth", "setting": "[5]; JTE-151 (0.3 μM, 1 μM, 3 μM) in combination with 0.05 nM gemcitabine", "result": "significant inhibition"}, {"measurement": "FG organoid growth", "setting": "[5]; JTE-151 alone at 0.3 μM, 1 μM, and 3 μM", "result": "significant inhibition"}]}
